Active and inactive are the calls of the source. No cut-off for these calls is given here.
Experiments:
[1] = biological target: T1, Endothelin receptor type B (Homo sapiens, UniProt P24530); experiment: Displacement of [125I]endhothelin-3 from human ETB receptor stably expressed in CHO cells Membrane at 25 degC incubated for 3 hrs by radioligand competition binding assay; format: cell membranes
T1 sequence (P24530 whole entry): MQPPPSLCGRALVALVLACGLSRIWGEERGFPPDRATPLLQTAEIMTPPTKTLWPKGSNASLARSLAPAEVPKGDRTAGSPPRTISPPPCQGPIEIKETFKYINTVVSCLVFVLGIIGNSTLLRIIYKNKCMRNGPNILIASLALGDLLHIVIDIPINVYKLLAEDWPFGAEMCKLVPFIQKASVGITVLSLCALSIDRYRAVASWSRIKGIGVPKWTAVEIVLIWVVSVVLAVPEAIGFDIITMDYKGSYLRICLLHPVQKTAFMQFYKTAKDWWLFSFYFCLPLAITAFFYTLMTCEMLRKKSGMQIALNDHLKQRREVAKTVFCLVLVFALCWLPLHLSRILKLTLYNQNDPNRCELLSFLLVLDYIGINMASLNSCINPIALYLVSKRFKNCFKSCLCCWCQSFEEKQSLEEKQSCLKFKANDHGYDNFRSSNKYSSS

[2] = biological target: T2, Endothelin-1 receptor (Homo sapiens) (UniProt P25101); experiment: Displacement of [125I]endhothelin-1 from human ETA receptor stably expressed in CHO cells Membrane assessed as maximum binding at 25 degC at 0.25 to 1.0 nM incubated for 4 hrs by saturation binding assay; format: cell membranes; settings: dose 0.25-1 nM
T2 sequence (whole entry): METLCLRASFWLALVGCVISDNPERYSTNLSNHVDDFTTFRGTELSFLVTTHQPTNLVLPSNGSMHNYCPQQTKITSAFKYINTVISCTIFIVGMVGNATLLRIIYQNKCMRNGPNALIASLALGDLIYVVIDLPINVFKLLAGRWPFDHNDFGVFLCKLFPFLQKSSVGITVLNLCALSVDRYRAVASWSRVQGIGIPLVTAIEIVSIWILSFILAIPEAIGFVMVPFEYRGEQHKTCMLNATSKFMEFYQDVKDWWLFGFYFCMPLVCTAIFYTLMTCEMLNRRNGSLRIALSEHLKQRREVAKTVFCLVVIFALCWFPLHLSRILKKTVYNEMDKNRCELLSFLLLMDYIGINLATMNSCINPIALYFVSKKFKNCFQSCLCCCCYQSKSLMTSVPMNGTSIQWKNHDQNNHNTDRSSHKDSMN

[3] = biological target: Adenosine receptor A3 (Homo sapiens) (UniProt P0DMS8); experiment: Displacement of [125I]AB-MECA from human recombinant adenosine A3 receptor at 10 uM incubated for 120 mins by radiometric based scintillation counter assay relative to control
Sequence of Adenosine receptor A3 (Homo sapiens) (P0DMS8 whole entry): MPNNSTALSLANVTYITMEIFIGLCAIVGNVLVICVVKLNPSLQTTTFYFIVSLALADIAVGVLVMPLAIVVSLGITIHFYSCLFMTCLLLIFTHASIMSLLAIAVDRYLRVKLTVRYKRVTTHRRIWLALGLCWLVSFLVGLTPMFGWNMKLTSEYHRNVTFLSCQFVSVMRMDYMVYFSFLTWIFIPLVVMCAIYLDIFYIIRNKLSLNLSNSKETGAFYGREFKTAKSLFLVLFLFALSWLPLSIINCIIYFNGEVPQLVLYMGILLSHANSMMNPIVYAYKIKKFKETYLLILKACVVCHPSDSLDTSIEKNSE

[4] = biological target: Type-1 angiotensin II receptor (Homo sapiens) (UniProt P30556); experiment: Displacement of [125I][Sar1,Ile8]-AT-II from human recombinant angiotensin AT1 receptor at 10 uM incubated for 120 mins by radiometric based scintillation counter assay relative to control
Sequence of Type-1 angiotensin II receptor (Homo sapiens) (P30556 whole entry): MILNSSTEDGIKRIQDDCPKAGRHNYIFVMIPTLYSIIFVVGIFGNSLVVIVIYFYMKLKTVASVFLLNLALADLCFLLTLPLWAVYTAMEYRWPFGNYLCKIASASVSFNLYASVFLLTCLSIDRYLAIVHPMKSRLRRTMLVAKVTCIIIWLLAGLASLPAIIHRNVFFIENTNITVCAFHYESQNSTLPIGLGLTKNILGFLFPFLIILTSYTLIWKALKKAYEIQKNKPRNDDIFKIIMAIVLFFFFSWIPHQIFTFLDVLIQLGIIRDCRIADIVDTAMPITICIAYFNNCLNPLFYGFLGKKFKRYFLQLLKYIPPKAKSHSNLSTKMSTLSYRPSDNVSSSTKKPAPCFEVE

[5] = biological target: Cannabinoid receptor 1 (Homo sapiens) (UniProt P21554); experiment: Displacement of [3H]CP 55940 from human recombinant cannabinoid CB1 receptor at 10 uM incubated for 30 mins by radiometric based scintillation counter assay relative to control
Sequence of Cannabinoid receptor 1 (Homo sapiens) (P21554 whole entry): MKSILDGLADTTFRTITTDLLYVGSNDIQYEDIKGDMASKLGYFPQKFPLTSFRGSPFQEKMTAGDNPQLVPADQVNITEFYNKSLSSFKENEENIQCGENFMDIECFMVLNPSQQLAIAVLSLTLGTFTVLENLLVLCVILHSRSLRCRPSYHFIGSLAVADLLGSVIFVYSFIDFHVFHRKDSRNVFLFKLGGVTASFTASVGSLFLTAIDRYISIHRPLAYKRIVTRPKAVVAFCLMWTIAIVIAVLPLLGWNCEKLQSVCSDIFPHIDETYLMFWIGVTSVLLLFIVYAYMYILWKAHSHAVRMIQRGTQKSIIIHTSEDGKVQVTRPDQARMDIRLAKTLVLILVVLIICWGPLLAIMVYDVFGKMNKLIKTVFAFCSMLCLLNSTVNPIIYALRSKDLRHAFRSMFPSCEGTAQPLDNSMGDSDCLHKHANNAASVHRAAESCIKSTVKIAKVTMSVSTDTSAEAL

[6] = biological target: D(4) dopamine receptor (Homo sapiens) (UniProt P21917); experiment: Displacement of [3H]methyl-spiperone from human recombinant dopamine D4 receptor at 10 uM incubated for 60 mins by radiometric based scintillation counter assay relative to control
Sequence of D(4) dopamine receptor (Homo sapiens) (P21917 whole entry): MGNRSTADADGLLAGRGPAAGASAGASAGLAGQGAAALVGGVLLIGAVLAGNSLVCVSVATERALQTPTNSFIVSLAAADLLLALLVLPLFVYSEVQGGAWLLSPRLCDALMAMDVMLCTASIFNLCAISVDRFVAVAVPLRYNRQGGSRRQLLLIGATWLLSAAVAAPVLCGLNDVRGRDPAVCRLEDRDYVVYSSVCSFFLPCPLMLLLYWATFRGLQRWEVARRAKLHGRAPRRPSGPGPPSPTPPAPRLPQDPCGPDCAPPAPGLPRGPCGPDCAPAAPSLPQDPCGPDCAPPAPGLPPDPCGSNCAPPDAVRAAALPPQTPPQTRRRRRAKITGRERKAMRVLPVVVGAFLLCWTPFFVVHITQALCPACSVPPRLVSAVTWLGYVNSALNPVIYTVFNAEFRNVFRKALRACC

[7] = biological target: T2, Endothelin-1 receptor (Homo sapiens); experiment: Displacement of [125I]endothelin-1 from human recombinant endothelin ETA receptor at 10 uM incubated for 120 mins by radiometric based scintillation counter assay relative to control; settings: filed as antagonist
[8] = biological target: Interleukin-1 beta (Homo sapiens) (UniProt P01584); experiment: Inhibition of Interleukin-1beta (unknown origin) at 10 uM by radioligand binding assay relative to control
Sequence of Interleukin-1 beta (Homo sapiens) (P01584 117-269 limits assumed): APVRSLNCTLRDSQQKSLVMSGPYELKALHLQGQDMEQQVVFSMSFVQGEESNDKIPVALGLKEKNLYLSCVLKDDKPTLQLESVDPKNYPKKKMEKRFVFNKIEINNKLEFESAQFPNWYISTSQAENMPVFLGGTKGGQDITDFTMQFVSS

[9] = biological target: Muscarinic acetylcholine receptor M2 (Homo sapiens) (UniProt P08172); experiment: Displacement of [3H]AF-DX 384 from human recombinant muscarinic M2 receptor at 10 uM incubated for 60 mins by radiometric based scintillation counter assay relative to control
Sequence of Muscarinic acetylcholine receptor M2 (Homo sapiens) (P08172 whole entry): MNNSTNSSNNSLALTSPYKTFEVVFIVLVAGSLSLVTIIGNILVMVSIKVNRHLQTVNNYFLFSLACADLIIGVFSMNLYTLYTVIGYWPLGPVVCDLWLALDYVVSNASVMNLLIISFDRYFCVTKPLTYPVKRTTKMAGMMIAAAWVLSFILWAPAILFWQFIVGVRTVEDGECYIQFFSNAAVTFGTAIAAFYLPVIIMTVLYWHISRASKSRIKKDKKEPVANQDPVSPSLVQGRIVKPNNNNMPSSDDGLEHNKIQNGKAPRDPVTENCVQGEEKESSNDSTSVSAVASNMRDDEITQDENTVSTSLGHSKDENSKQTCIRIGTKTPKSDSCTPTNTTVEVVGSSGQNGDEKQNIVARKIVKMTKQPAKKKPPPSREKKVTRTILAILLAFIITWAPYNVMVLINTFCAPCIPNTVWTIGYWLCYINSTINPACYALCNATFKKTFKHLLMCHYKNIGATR

[10] = biological target: Neuropeptide Y receptor type 2 (Homo sapiens) (UniProt P49146); experiment: Displacement of [125I]peptide YY from human recombinant Y2 receptor at 10 uM incubated for 60 mins by radiometric based scintillation counter assay relative to control
Sequence of Neuropeptide Y receptor type 2 (Homo sapiens) (P49146 whole entry): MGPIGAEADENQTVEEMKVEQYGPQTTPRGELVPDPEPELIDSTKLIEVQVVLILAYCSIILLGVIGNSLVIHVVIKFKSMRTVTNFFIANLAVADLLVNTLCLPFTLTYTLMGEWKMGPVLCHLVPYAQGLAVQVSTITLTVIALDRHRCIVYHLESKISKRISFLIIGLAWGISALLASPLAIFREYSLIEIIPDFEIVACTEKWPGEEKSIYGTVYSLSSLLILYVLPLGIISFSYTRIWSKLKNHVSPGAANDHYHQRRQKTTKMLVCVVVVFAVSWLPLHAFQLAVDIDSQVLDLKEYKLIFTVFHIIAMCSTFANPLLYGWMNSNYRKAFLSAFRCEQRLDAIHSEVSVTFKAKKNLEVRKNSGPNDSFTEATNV

[11] = biological target: Mu-type opioid receptor (Homo sapiens) (UniProt P35372); experiment: Displacement of [3H]DAMGO from human recombinant mu-Opioid receptor at 10 uM incubated for 120 mins by radiometric based scintillation counter assay relative to control
Sequence of Mu-type opioid receptor (Homo sapiens) (P35372 whole entry): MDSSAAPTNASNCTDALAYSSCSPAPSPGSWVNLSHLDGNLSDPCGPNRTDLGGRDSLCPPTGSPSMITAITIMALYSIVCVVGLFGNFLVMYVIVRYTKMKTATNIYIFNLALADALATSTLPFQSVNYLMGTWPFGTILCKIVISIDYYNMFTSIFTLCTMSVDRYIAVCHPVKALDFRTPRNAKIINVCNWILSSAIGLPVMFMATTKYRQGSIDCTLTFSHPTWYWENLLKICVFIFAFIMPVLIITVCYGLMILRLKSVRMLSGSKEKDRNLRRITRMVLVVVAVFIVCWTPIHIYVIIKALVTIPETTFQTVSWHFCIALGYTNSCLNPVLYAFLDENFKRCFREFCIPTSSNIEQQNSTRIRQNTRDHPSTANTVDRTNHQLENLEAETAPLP

[12] = biological target: 5-hydroxytryptamine receptor 1A (Homo sapiens) (UniProt P08908); experiment: Displacement of [3H]8-OH-DPAT from human recombinant 5-Hydroxytryptamine 1A at 10 uM incubated for 60 mins by radiometric based scintillation counter assay relative to control
Sequence of 5-hydroxytryptamine receptor 1A (Homo sapiens) (P08908 whole entry): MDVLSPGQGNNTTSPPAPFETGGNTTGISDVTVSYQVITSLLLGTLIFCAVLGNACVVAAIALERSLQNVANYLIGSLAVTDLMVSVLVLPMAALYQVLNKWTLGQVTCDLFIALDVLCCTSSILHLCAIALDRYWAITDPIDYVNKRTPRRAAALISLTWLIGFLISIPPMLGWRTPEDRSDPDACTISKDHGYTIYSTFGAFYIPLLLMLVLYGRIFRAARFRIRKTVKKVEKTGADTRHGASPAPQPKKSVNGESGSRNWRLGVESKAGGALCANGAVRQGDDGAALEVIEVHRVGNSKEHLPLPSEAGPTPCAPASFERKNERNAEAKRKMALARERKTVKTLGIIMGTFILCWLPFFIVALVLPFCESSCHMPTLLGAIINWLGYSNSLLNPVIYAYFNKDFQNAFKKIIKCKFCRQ

[13] = biological target: 5-hydroxytryptamine receptor 2C (Homo sapiens) (UniProt P28335); experiment: Displacement of [3H]mesulergine from human recombinant 5-Hydroxytryptamine 2C at 10 uM incubated for 120 mins by radiometric based scintillation counter assay relative to control
Sequence of 5-hydroxytryptamine receptor 2C (Homo sapiens) (P28335 whole entry): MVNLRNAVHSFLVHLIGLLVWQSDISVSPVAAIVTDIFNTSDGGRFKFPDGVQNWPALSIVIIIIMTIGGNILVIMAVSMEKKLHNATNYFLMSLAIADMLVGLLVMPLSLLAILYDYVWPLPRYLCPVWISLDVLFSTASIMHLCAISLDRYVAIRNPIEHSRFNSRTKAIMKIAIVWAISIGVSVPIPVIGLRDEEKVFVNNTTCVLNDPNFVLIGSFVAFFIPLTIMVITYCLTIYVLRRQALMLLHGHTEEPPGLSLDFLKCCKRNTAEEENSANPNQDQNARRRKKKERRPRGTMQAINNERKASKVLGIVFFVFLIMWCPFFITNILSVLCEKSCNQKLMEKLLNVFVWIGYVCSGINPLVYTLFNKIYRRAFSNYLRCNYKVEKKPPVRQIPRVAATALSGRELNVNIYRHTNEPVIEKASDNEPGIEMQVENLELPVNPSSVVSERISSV

Mus musculus = species on record: Mus musculus; experiment: Displacement of [125I]Tyr11-somatostatin-14 from mouse Somatostatin receptor at 10 uM incubated for 60 mins by radiometric based scintillation counter assay relative to control
Homo sapiens = species on record: Homo sapiens; experiment: Displacement of [35S]TBPS to GABA channel Chloride ionophore binding site (unknown origin) at 10 uM by radioligand binding assay relative to control; settings: filed as antagonist
[14] = Half life in Sprague-Dawley rat at 5 mg/kg, iv administered for 12 hrs by HPLC analysis; format: ADME, organism-based; settings: in vivo
[15] = biological target: T3, Endothelin-1 receptor (Rattus norvegicus) (UniProt P26684); experiment: In vivo antagonist activity to ETA receptor in endothelin-1 induced Sprague-Dawley rat assessed as inhibition of transient depressor response at 10 to 30 mg/kg, po administered for 4 hrs; format: functional, organism-based; settings: dose 10-30 mg/kg
T3 sequence (whole entry): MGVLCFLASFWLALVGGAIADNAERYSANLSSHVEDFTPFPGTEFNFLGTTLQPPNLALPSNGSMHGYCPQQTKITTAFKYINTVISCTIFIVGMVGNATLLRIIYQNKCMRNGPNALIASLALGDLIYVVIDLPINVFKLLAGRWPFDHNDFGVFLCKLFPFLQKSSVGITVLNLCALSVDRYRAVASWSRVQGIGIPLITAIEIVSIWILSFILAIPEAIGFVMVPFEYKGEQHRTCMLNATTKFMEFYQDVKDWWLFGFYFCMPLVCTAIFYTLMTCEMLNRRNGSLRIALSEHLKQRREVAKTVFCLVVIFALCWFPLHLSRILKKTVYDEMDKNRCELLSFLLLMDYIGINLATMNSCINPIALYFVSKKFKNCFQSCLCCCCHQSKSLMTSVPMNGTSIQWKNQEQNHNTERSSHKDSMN

[16] = tested on: P2Y purinergic receptor (Rattus norvegicus); experiment: Displacement of [35S]dATPalpha S from rat brain P2Y-purinergic receptor at 10 uM incubated for 60 mins by radiometric based scintillation counter assay relative to control

CCCCN(CCCC)C(=O)CN1[C@H](c2cc(OC)c3c(c2)OCO3)C[C@@H](C(=O)O)[C@@H]1CC(C)(C)CCC
IC50 [1]: 15.4 µM
Bmax [2]: inactive
inhibition [3]: 32%
inhibition [4]: < 10%
inhibition [5]: < 10%
inhibition [6]: < 10%
inhibition [7]: 98%
inhibition [8]: < 10%
inhibition [9]: < 10%
inhibition [10]: < 10%
inhibition [11]: 17%
inhibition [12]: < 10%
inhibition [13]: < 10%
inhibition (Mus musculus): < 10%
inhibition (Homo sapiens): 61%
half-life [14]: 1.6 h
Activity [15]: inactive
inhibition [16]: < 10%
